# Where “and” joins values, the source holds several entries; their conditions need not be identical. Equal values may be shown once.
# How the values were obtained:
# [1] = system: BTN2A−/− MIA PaCa-2 (BTN2A1/BTN2A2 KO) cells; experiment: Cell killing assay with BTN2A−/− MIA PaCa-2 (BTN2A1/BTN2A2 KO) cells expressing BTN2A1/BTN2A2 variants; settings: cells expressing the BTN2A1 variant given as label; for Mean response (Fig. 6h, Dunnett test details): N = 6
# Experimental: (§2) MIA PaCa-2 cells were infected with lentivirus bearing luciferase transgene. Luciferase-positive cells were plated at 5.0 × 10^3 cells per well in 384-well plates 1 day before transfection. All plasmids were transfected into BTN2A^−/− MIA PaCa-2 (BTN2A1/BTN2A2 KO) cells using Lipofectamine 2000 reagent. […] Stable-lite luciferase (Vazyme) was added to each well and the luciferase signal was immediately measured by using the PerkinElmer EnVision microplate reader.
# (§3) Percentage of lysis was calculated using the following equation: percentage of specific lysis = (maximum luciferase − experimental luciferase)/maximum luciferase × 100.
# MIA PaCa-2 cells [2] = experiment: Cell killing assay: cytotoxicity of Vγ9Vδ2 T cells towards pAg- or zoledronate-treated MIA PaCa-2 cells (luciferase); format: cell-based, human; settings: Homo sapiens, MIA PaCa-2, Supplementary Table 4; read-out: EC50 (M) for MIA PaCa-2 cell lysis mediated by HMBPP analogs and Vγ9Vδ2 T cells
# Experimental: as §2, §3
# [3] = biological target: T1, preconditioned BTN2A1–BTN3A1 B30.2 complex (Homo sapiens, UniProt O00481+Q7KYR7); experiment: ITC: pAg binding to the preconditioned BTN2A1 B30.2 and BTN3A1 B30.2 complex; settings: ITC; Supplementary Table 4; read-out: KD (M) for phosphoantigen binding to the pre-conditioned 2A1 B30.2 and 3A1 B30.2
# T1 construct: The BTN3A1 B30.2 domain was expressed and purified as described previously; 6xHis; made in house; host or cells: Escherichia coli BL21 (DE3) for BTN2A1 B30.2
# T1 sequence (O00481 322-513 limits assumed): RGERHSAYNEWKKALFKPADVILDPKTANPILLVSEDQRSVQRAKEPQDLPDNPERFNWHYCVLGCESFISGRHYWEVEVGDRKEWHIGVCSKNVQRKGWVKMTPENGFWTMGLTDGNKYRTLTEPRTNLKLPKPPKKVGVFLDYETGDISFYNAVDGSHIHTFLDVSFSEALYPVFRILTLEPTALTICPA
# T1 sequence (Q7KYR7 316-527 limits assumed): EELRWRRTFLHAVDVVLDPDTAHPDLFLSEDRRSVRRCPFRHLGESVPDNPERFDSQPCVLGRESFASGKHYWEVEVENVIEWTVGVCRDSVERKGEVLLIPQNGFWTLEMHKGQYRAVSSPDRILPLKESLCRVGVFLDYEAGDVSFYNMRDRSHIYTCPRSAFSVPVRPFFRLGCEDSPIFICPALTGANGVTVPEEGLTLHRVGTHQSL
# Experimental: ITC binding fits were calculated using MicroCal Analysis software.
# For HMBPP binding to the preconditioned BTN2A1 B30.2 and BTN3A1 B30.2 complex, BTN2A1 B30.2 (20 µM) and BTN3A1 B30.2 (10 µM) were incubated in the buffer at a 2:1 ratio and loaded into the sample cell, and the injection syringe was filled with buffer containing 100 µM HMBPP.
# For DMAPP/IPP binding to the preconditioned BTN2A1 B30.2 and BTN3A1 B30.2 complex, BTN2A1 B30.2 (200 µM) and BTN3A1 B30.2 (100 µM) were incubated in buffer at a 2:1 ratio and loaded into the sample cell, and the injection syringe was filled with buffer containing 1 mM DMAPP/IPP.
# For other pAgs, their concentrations were adjusted to 500 µM, and BTN2A1 B30.2 and BTN3A1 B30.2 were adjusted to 100 µM and 50 µM at a 2:1 ratio.
# MIA PaCa-2 cells [4] = experiment: AFM-SCFS binding force between a Vγ9Vδ2 T cell and a MIA PaCa-2 cell; format: cell-based, human; parameters: binding force, Mean, Fig. 6b / binding force, Median, Fig. 6b: unit not given here; settings: second panel (Ctrl, ZOL, HMBPP-15, HMBPP-15+ZOL)
# Experimental: The AFM-SCFS analysis procedure was performed using the JPK CellHesion unit as previously described, and closely followed our previously reported protocol for APCs[4]. […] The glass disks were quickly transferred to an AFM adapter with immediate addition of 1 ml of fresh medium (DMEM: 10% FBS and 1% penicillin–streptomycin). […] The raw data were normalized to the background readings. Blank readings for each set of affinity measurements (Vγ9Vδ2 T cells touching the glass surface) were collected immediately before each assay to perform background subtraction. All data were analysed using the JPK image processing software. […] The following steps were the same as described above.
# [5] = system: BTN2A−/− MIA PaCa-2 (BTN2A1/BTN2A2 KO) cells; experiment: TNF secretion by Vγ9Vδ2 T cells co-cultured with zoledronate-treated BTN2A−/− MIA PaCa-2 cells expressing BTN2A1 variants; format: cell-based, human; settings: n=6
# Experimental: (§1) BTN2A^−/− MIA PaCa-2 (BTN2A1/BTN2A2 KO) cells were plated at 1.0 × 10^4 cells per well in 96-well plates 1 day before transfection. […] The medium was then aspirated and cells were washed four times with PBS at room temperature. Vγ9Vδ2 T cells (1.0 × 10^5 cells per well) were then added and cocultured with MIA PaCa-2 cells, and culture supernatants were collected after 16 h and assayed for TNF levels using a TNF human uncoated ELISA kit (Invitrogen). The assay of CHO-K1 cells (infected with lentivirus of BTN3A1 and CD80) was performed according to the same methods as for the MIA PaCa-2 cells[22],[23].
# [6] = system: BTN3A1+CD80+ CHO-K1 cells; experiment: TNF secretion by Vγ9Vδ2 T cells co-cultured with zoledronate-treated BTN3A1+CD80+ CHO-K1 cells; format: cell-based, Chinese hamster; settings: Fig. 3c, ii
# Experimental: as §1
# [7] = system: BTN2A−/− MIA PaCa-2 (BTN2A1/BTN2A2 KO) cells; experiment: IFNγ release from Vγ9Vδ2 T cells in response to zoledronate stimulation of BTN2A−/− MIA PaCa-2 cells expressing BTN2A1 variants; format: cell-based, human; parameters: unit not given here; settings: 6 values
compound,measurement,setting,value
2A1 WT,"Mean response (Fig. 6h, Dunnett test details)",[1]; Row 1 (-6.4),1.143
same,"Mean response (Fig. 6h, Dunnett test details)",[1]; Row 2 (-5.8),3.802
same,"Mean response (Fig. 6h, Dunnett test details)",[1]; Row 3 (-5.2),14.85
same,"Mean response (Fig. 6h, Dunnett test details)",[1]; Row 4 (-4.6),21.48
same,"Mean response (Fig. 6h, Dunnett test details)",[1]; Row 5 (-4),24.98
same,"Response, individual replicates (Fig. 6h source data)",[1]; x = -4 (log concentration; stimulant and units not given),22.8101 and 22.1668 and 28.5464 and 27.6474 and 25.9163 and 22.7794
same,"Response, individual replicates (Fig. 6h source data)",[1]; x = -4.6 (log concentration; stimulant and units not given),21.6162 and 22.5956 and 18.2653 and 23.7306 and 21.555 and 21.0967
same,"Response, individual replicates (Fig. 6h source data)",[1]; x = -5.2 (log concentration; stimulant and units not given),14.9991 and 16.3572 and 11.8762 and 12.0557 and 14.1862 and 19.6027
same,"Response, individual replicates (Fig. 6h source data)",[1]; x = -5.8 (log concentration; stimulant and units not given),3.9587 and 2.199 and 2.053 and 2.932 and 3.753 and 7.914
same,"Response, individual replicates (Fig. 6h source data)",[1]; x = -6.4 (log concentration; stimulant and units not given),1.264 and 0.797 and 0.5929 and 0.7387 and 0.7679 and 2.697
"CC/C(=C\COP(=O)(O)OP(=O)(O)O)CO [Compound 4, (E)-4-hydroxy-3-ethyl-but-2-enyl diphosphate]",EC50,MIA PaCa-2 cells [2],4.5e-07 M
same,Kd,[3],3.26e-07 M
"C=CC/C(=C\COP(=O)(O)OP(=O)(O)O)CO [Compound 5, (E)-3-(hydroxymethyl)hexa-2,5-dienyl diphosphate]",EC50,MIA PaCa-2 cells [2],1.3e-08 M
same,Kd,[3],2.06e-07 M
"C/C(=C\COP(=O)(O)OP(=O)(O)O)C(C)O (stereo not drawn) [Compound 6, (E)-4-hydroxy-3-methylpent-2-en-1-yl diphosphate]",EC50,MIA PaCa-2 cells [2],1.8e-06 M
same,Kd,[3],1.69e-05 M
"C/C(=C\COP(=O)(O)CP(=O)(O)O)CO [Compound 7, (E)-((hydroxy((4-hydroxy-3-methylbut-2-en-1-yl)oxy)phosphoryl)methyl)phosphonic acid]",EC50,MIA PaCa-2 cells [2],1.46e-06 M
same,Kd,[3],4.62e-05 M
"C/C(=C\COP(=O)(O)C(Cl)(Cl)P(=O)(O)O)CO [Compound 8, (E)-(dichloro(hydroxy((4-hydroxy-3-methylbut-2-en-1yl)oxy)phosphoryl)methyl diphosphate]",EC50,MIA PaCa-2 cells [2],9.28e-07 M
same,Kd,[3],1.25e-05 M
"C/C(=C\COP(=O)(O)C(Cl)P(=O)(O)O)CO (stereo not drawn) [Compound 9, (E)-(chloro(hydroxy((4-hydroxy-3-methylbut-2-en-1-yl)oxy)phosphoryl)methyl)phosphonic acid]",EC50,MIA PaCa-2 cells [2],3.5e-05 M
same,Kd,[3],4.97e-05 M
"C/C(=C\COP(=O)(O)C(F)(F)P(=O)(O)O)CO [Compound 10, (E)-(difluoro(hydroxy((4-hydroxy-3-methylbut-2-en-1-yl)oxy)phosphory)methyl)phosphonic acid]",EC50,MIA PaCa-2 cells [2],5.33e-06 M
same,Kd,[3],1.15e-05 M
"C/C(=C\COP(=O)(O)C(F)P(=O)(O)O)CO (stereo not drawn) [Compound 11, (E)-(fluoro(hydroxy((4-hydroxy-3-methylbut-2-en-1-yl)oxy)phosphoryl)methyl)phosphonic acid]",EC50,MIA PaCa-2 cells [2],8.71e-07 M
same,Kd,[3],2.81e-05 M
O=P(O)(O)C(O)(Cn1ccnc1)P(=O)(O)O [Zoledronate],"binding force, Mean, Fig. 6b",MIA PaCa-2 cells [4],1524
same,"binding force, Median, Fig. 6b",MIA PaCa-2 cells [4],1525
same,"TNF secretion by Vγ9Vδ2 T cells, Mean","[5]; Fig. 3c, i, zoledronate-treated cells expressing BTN2A1 D455G/E457R",6.214
same,"TNF secretion by Vγ9Vδ2 T cells, Mean","[5]; Fig. 3c, i, zoledronate-treated cells expressing BTN2A1 R477A",8.398
same,"TNF secretion by Vγ9Vδ2 T cells, Mean","[5]; Fig. 3c, i, zoledronate-treated cells expressing BTN2A1 T510A",6.658
same,"TNF secretion by Vγ9Vδ2 T cells, Mean","[5]; Fig. 3c, i, zoledronate-treated cells expressing BTN2A1 T510M",7.401
same,"TNF secretion by Vγ9Vδ2 T cells, Mean","[5]; Fig. 3c, i, zoledronate-treated cells expressing BTN2A1 V511A",7.427
same,"TNF secretion by Vγ9Vδ2 T cells, Mean","[5]; Fig. 3c, i, zoledronate-treated cells expressing BTN2A1 V511D",6.982
same,"TNF secretion by Vγ9Vδ2 T cells, Mean","[5]; Fig. 3c, i, zoledronate-treated cells expressing BTN2A1 V511W",7.617
same,"TNF secretion by Vγ9Vδ2 T cells, Mean","[5]; Fig. 3c, i, zoledronate-treated cells expressing BTN2A1 WT",158.2
same,"TNF secretion by Vγ9Vδ2 T cells, Mean","[5]; Fig. 3c, i, zoledronate-treated cells expressing BTN2A1 ∆C",9.364
same,"TNF secretion by Vγ9Vδ2 T cells, Mean","[5]; Fig. 3c, i, zoledronate-treated cells, NT",7.859
same,"TNF secretion by Vγ9Vδ2 T cells, Mean","[5]; Fig. 3d, zoledronate-treated cells expressing BTN2A1 H471G/I472A/Y473A",9.274
same,"TNF secretion by Vγ9Vδ2 T cells, Mean","[5]; Fig. 3d, zoledronate-treated cells expressing BTN2A1 R449A/R469A",16.58
same,"TNF secretion by Vγ9Vδ2 T cells, Mean","[5]; Fig. 3d, zoledronate-treated cells expressing BTN2A1 WT",182.7
same,"TNF secretion by Vγ9Vδ2 T cells, Mean","[5]; Fig. 3d, zoledronate-treated cells expressing BTN2A1 Y464A-T474A",9.364
same,"TNF secretion by Vγ9Vδ2 T cells, Mean","[5]; Fig. 3d, zoledronate-treated cells expressing BTN2A1 ∆C",0.6146
same,"TNF secretion by Vγ9Vδ2 T cells, Mean","[5]; Fig. 3d, zoledronate-treated cells, NT",9.612
same,"TNF secretion by Vγ9Vδ2 T cells, Mean","[6]; zoledronate-treated cells expressing BTN2A1 D455G/E457R, n=6",11.14
same,"TNF secretion by Vγ9Vδ2 T cells, Mean","[6]; zoledronate-treated cells expressing BTN2A1 R477A, n=6",8.53
same,"TNF secretion by Vγ9Vδ2 T cells, Mean","[6]; zoledronate-treated cells expressing BTN2A1 T510A, n=6",7.472
same,"TNF secretion by Vγ9Vδ2 T cells, Mean","[6]; zoledronate-treated cells expressing BTN2A1 T510M, n=6",7.874
same,"TNF secretion by Vγ9Vδ2 T cells, Mean","[6]; zoledronate-treated cells expressing BTN2A1 V511A, n=6",10.17
same,"TNF secretion by Vγ9Vδ2 T cells, Mean","[6]; zoledronate-treated cells expressing BTN2A1 V511D, n=6",6.367
same,"TNF secretion by Vγ9Vδ2 T cells, Mean","[6]; zoledronate-treated cells expressing BTN2A1 V511W, n=6",8.466
same,"TNF secretion by Vγ9Vδ2 T cells, Mean","[6]; zoledronate-treated cells expressing BTN2A1 WT, n=5",465.4
same,"TNF secretion by Vγ9Vδ2 T cells, Mean","[6]; zoledronate-treated cells expressing BTN2A1 ∆C, n=6",7.982
same,"TNF secretion by Vγ9Vδ2 T cells, Mean","[6]; zoledronate-treated cells, NT, n=6",20.41
same,Mean (Extended Data Fig. 7b),[7]; NT cells,2.056
same,Mean (Extended Data Fig. 7b),[7]; cells expressing BTN2A1 E286G,48.61
same,Mean (Extended Data Fig. 7b),[7]; cells expressing BTN2A1 E300G,78.93
same,Mean (Extended Data Fig. 7b),[7]; cells expressing BTN2A1 E307G,40.34
same,Mean (Extended Data Fig. 7b),[7]; cells expressing BTN2A1 E316G,128.5
same,Mean (Extended Data Fig. 7b),[7]; cells expressing BTN2A1 F324G,95.24
same,Mean (Extended Data Fig. 7b),[7]; cells expressing BTN2A1 K276G,55.14
same,Mean (Extended Data Fig. 7b),[7]; cells expressing BTN2A1 K283G,42.21
same,Mean (Extended Data Fig. 7b),[7]; cells expressing BTN2A1 K304G,117
same,Mean (Extended Data Fig. 7b),[7]; cells expressing BTN2A1 K311G,59.44
same,Mean (Extended Data Fig. 7b),[7]; cells expressing BTN2A1 L272G,81.83
same,Mean (Extended Data Fig. 7b),[7]; cells expressing BTN2A1 L279G,16.84
same,Mean (Extended Data Fig. 7b),[7]; cells expressing BTN2A1 L294G,44.72
same,Mean (Extended Data Fig. 7b),[7]; cells expressing BTN2A1 L297G,44.28
same,Mean (Extended Data Fig. 7b),[7]; cells expressing BTN2A1 L314G,23.31
same,Mean (Extended Data Fig. 7b),[7]; cells expressing BTN2A1 L318G,13.17
same,Mean (Extended Data Fig. 7b),[7]; cells expressing BTN2A1 L325C/A327C,59.39
same,Mean (Extended Data Fig. 7b),[7]; cells expressing BTN2A1 L325G,7.962
same,Mean (Extended Data Fig. 7b),[7]; cells expressing BTN2A1 R290A,84.46
same,Mean (Extended Data Fig. 7b),[7]; cells expressing BTN2A1 W320A,70.37
same,Mean (Extended Data Fig. 7b),[7]; cells expressing BTN2A1 WT,151.4
